Laboratory results published in the NIST ThermoML archive (doi:10.1021/je034290l).
± gives the expanded uncertainty stated by the source.

Assays:
[1] = excess molar enthalpy (molar enthalpy of mixing); xn = mol fraction of the nth substance listed; details: 101.32 kPa, Liquid, Calvet calorimetry
[2] = xn = mol fraction of the nth substance listed; details: 101.32 kPa, Liquid

COC(C)=O [methyl ethanoate] + CC(C)(C)O
Details	excess molar enthalpy [kcal/mol]	excess molar volume [m3/mol]
[1], 299.15 K, x1 = 0.0671	0.126 ± 0.00167	–
[1], 299.15 K, x1 = 0.1369	0.238 ± 0.00311	–
[1], 299.15 K, x1 = 0.2113	0.341 ± 0.0043	–
[1], 299.15 K, x1 = 0.2812	0.417 ± 0.00526	–
[1], 299.15 K, x1 = 0.3492	0.472 ± 0.00598	–
[1], 299.15 K, x1 = 0.4106	0.504 ± 0.00621	–
[1], 299.15 K, x1 = 0.4675	0.519 ± 0.00645	–
[1], 299.15 K, x1 = 0.4928	0.522 ± 0.00645	–
[1], 299.15 K, x1 = 0.5304	0.524 ± 0.00645	–
[1], 299.15 K, x1 = 0.5753	0.517 ± 0.00645	–
[1], 299.15 K, x1 = 0.6226	0.5 ± 0.00621	–
[1], 299.15 K, x1 = 0.6741	0.47 ± 0.00598	–
[1], 299.15 K, x1 = 0.7293	0.427 ± 0.00526	–
[1], 299.15 K, x1 = 0.7866	0.368 ± 0.00454	–
[1], 299.15 K, x1 = 0.8439	0.292 ± 0.00359	–
[1], 299.15 K, x1 = 0.9019	0.201 ± 0.00263	–
[1], 299.15 K, x1 = 0.9551	0.107 ± 0.00141	–
[1], 318.15 K, x1 = 0.071	0.113 ± 0.00151	–
[1], 318.15 K, x1 = 0.1469	0.216 ± 0.00263	–
[1], 318.15 K, x1 = 0.2304	0.311 ± 0.00382	–
[1], 318.15 K, x1 = 0.3022	0.382 ± 0.00478	–
[1], 318.15 K, x1 = 0.3713	0.434 ± 0.0055	–
[1], 318.15 K, x1 = 0.4322	0.471 ± 0.00598	–
[1], 318.15 K, x1 = 0.4898	0.49 ± 0.00598	–
[1], 318.15 K, x1 = 0.5407	0.492 ± 0.00621	–
[1], 318.15 K, x1 = 0.5865	0.485 ± 0.00598	–
[1], 318.15 K, x1 = 0.6105	0.475 ± 0.00598	–
[1], 318.15 K, x1 = 0.6585	0.451 ± 0.00574	–
[1], 318.15 K, x1 = 0.711	0.414 ± 0.00526	–
[1], 318.15 K, x1 = 0.7628	0.367 ± 0.00454	–
[1], 318.15 K, x1 = 0.817	0.308 ± 0.00382	–
[1], 318.15 K, x1 = 0.8636	0.242 ± 0.00311	–
[1], 318.15 K, x1 = 0.9085	0.174 ± 0.00237	–
[1], 318.15 K, x1 = 0.9567	0.0889 ± 0.00148	–
[2], 303.15 K, x1 = 0.0451	–	1.65e-07 ± 1.6e-08
[2], 303.15 K, x1 = 0.0901	–	3.35e-07 ± 1.7e-08
[2], 303.15 K, x1 = 0.1537	–	5.06e-07 ± 1.8e-08
[2], 303.15 K, x1 = 0.1973	–	6.07e-07 ± 1.8e-08
[2], 303.15 K, x1 = 0.2481	–	7.02e-07 ± 1.9e-08
[2], 303.15 K, x1 = 0.2631	–	7.32e-07 ± 1.9e-08
[2], 303.15 K, x1 = 0.3042	–	8.09e-07 ± 1.9e-08
[2], 303.15 K, x1 = 0.3448	–	8.49e-07 ± 1.9e-08
[2], 303.15 K, x1 = 0.3957	–	8.87e-07 ± 2e-08
[2], 303.15 K, x1 = 0.4411	–	9.04e-07 ± 2e-08
[2], 303.15 K, x1 = 0.4445	–	8.99e-07 ± 2e-08
[2], 303.15 K, x1 = 0.4964	–	8.92e-07 ± 2e-08
[2], 303.15 K, x1 = 0.5515	–	8.74e-07 ± 2e-08
[2], 303.15 K, x1 = 0.5677	–	8.68e-07 ± 2e-08
[2], 303.15 K, x1 = 0.5954	–	8.5e-07 ± 1.9e-08
[2], 303.15 K, x1 = 0.6467	–	7.94e-07 ± 1.9e-08
[2], 303.15 K, x1 = 0.6956	–	7.42e-07 ± 1.9e-08
[2], 303.15 K, x1 = 0.7432	–	6.59e-07 ± 1.9e-08
[2], 303.15 K, x1 = 0.8016	–	5.54e-07 ± 1.8e-08
[2], 303.15 K, x1 = 0.8477	–	4.63e-07 ± 1.8e-08
[2], 303.15 K, x1 = 0.9067	–	3.28e-07 ± 1.7e-08
[2], 303.15 K, x1 = 0.9465	–	2.17e-07 ± 1.7e-08
[2], 318.15 K, x1 = 0.102	–	3.93e-07 ± 1.7e-08
[2], 318.15 K, x1 = 0.165	–	5.61e-07 ± 1.8e-08
[2], 318.15 K, x1 = 0.2168	–	6.84e-07 ± 1.9e-08
[2], 318.15 K, x1 = 0.2804	–	7.71e-07 ± 1.9e-08
[2], 318.15 K, x1 = 0.349	–	8.76e-07 ± 2e-08
[2], 318.15 K, x1 = 0.4031	–	9.16e-07 ± 2e-08
[2], 318.15 K, x1 = 0.4596	–	9.41e-07 ± 2e-08
[2], 318.15 K, x1 = 0.5227	–	9.15e-07 ± 2e-08
[2], 318.15 K, x1 = 0.5784	–	8.91e-07 ± 2e-08
[2], 318.15 K, x1 = 0.6398	–	8.5e-07 ± 1.9e-08
[2], 318.15 K, x1 = 0.6786	–	8.06e-07 ± 1.9e-08
[2], 318.15 K, x1 = 0.7422	–	7.18e-07 ± 1.9e-08
[2], 318.15 K, x1 = 0.7969	–	5.7e-07 ± 1.8e-08
[2], 318.15 K, x1 = 0.8256	–	5.31e-07 ± 1.8e-08
[2], 318.15 K, x1 = 0.9077	–	3.01e-07 ± 1.7e-08
[2], 318.15 K, x1 = 0.9496	–	1.86e-07 ± 1.6e-08
